Source: the supplement of paper PMC10307832

Legend:
Assay in all cases: relative viability (nuclei count vs DMSO), 5 days (fraction); higher = more cells survive
Bleomycin + Phenformin = compound: CC1=C(N=C(N=C1N)[C@H](CC(=O)N)NC[C@@H](C(=O)N)N)C(=O)N[C@@H]([C@H](C2=CN=CN2)OC3C(C(C(C(O3)CO)O)O)OC4C(C(C(C(O4)CO)O)OC(=O)N)O)C(=O)N[C@H](C)[C@H]([C@H](C)C(=O)N[C@@H]([C@@H](C)O)C(=O)NCCC5=NC(=CS5)C6=NC(=CS6)C(=O)NCCC[S+](C)C)O [Bleomycin] + N=C(N)NC(=N)NCCc1ccccc1 [Phenformin] (partner 250 µM); settings: main component drawn
How it was run: (§1)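 After 5 days of treatment, lung cancer cells in 1536-well plates were fixed and stained in a single step (final 0.05% Triton X-100, 1% formaldehyde, 1 ug/ml Hoechst) and their nuclei counted on 4× images. Treatment had been applied by pin tool the day after seeding as one drug alone or as a fixed anchor-drug dose with five library-drug doses (not always all listed) in √10 steps. Relative viability is the nuclei count of treated wells divided by that of vehicle wells, and values are medians of duplicate plates.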

Etoposide + Luminespib = compound: COc1cc([C@@H]2c3cc4c(cc3[C@@H](O[C@@H]3O[C@@H]5CO[C@@H](C)O[C@H]5[C@H](O)[C@H]3O)[C@H]3COC(=O)[C@H]23)OCO4)cc(OC)c1O [Etoposide] + CCNC(=O)c1noc(-c2cc(C(C)C)c(O)cc2O)c1-c1ccc(CN2CCOCC2)cc1 [Luminespib] (partner 0.01 µM)
How it was run: as §1

Etoposide + Alpelisib = compound: COc1cc([C@@H]2c3cc4c(cc3[C@@H](O[C@@H]3O[C@@H]5CO[C@@H](C)O[C@H]5[C@H](O)[C@H]3O)[C@H]3COC(=O)[C@H]23)OCO4)cc(OC)c1O [Etoposide] + Cc1nc(NC(=O)N2CCC[C@H]2C(N)=O)sc1-c1ccnc(C(C)(C)C(F)(F)F)c1 [Alpelisib] (partner 2 µM)
How it was run: as §1

Bleomycin + Navitoclax = compound: CC1=C(N=C(N=C1N)[C@H](CC(=O)N)NC[C@@H](C(=O)N)N)C(=O)N[C@@H]([C@H](C2=CN=CN2)OC3C(C(C(C(O3)CO)O)O)OC4C(C(C(C(O4)CO)O)OC(=O)N)O)C(=O)N[C@H](C)[C@H]([C@H](C)C(=O)N[C@@H]([C@@H](C)O)C(=O)NCCC5=NC(=CS5)C6=NC(=CS6)C(=O)NCCC[S+](C)C)O [Bleomycin] + CC1(C)CCC(c2ccc(Cl)cc2)=C(CN2CCN(c3ccc(C(=O)NS(=O)(=O)c4ccc(N[C@H](CCN5CCOCC5)CSc5ccccc5)c(S(=O)(=O)C(F)(F)F)c4)cc3)CC2)C1 [Navitoclax] (partner 0.5 µM); settings: main component drawn
How it was run: as §1

Cell Line | relative viability (Bleomycin + Phenformin; first compound 0.01 µM) | relative viability (Bleomycin + Phenformin; first compound 0.03162 µM) | relative viability (Bleomycin + Phenformin; first compound 0.1 µM) | relative viability (Bleomycin + Phenformin; first compound 0.3162 µM) | relative viability (Bleomycin + Phenformin; first compound 1 µM) | relative viability (Etoposide + Luminespib; first compound 0.01 µM) | relative viability (Etoposide + Luminespib; first compound 0.03162 µM) | relative viability (Etoposide + Luminespib; first compound 0.1 µM) | relative viability (Etoposide + Luminespib; first compound 0.3162 µM) | relative viability (Etoposide + Luminespib; first compound 1 µM) | relative viability (Etoposide + Alpelisib; first compound 0.01 µM) | relative viability (Etoposide + Alpelisib; first compound 0.03162 µM) | relative viability (Etoposide + Alpelisib; first compound 0.1 µM) | relative viability (Etoposide + Alpelisib; first compound 0.3162 µM) | relative viability (Etoposide + Alpelisib; first compound 1 µM) | relative viability (Bleomycin + Navitoclax; first compound 0.01 µM) | relative viability (Bleomycin + Navitoclax; first compound 0.03162 µM) | relative viability (Bleomycin + Navitoclax; first compound 0.1 µM) | relative viability (Bleomycin + Navitoclax; first compound 0.3162 µM) | relative viability (Bleomycin + Navitoclax; first compound 1 µM)
NCI-H2085 | 0.599 | 0.595 | 0.55 | 0.329 | 0.306 | 0.34 | 0.514 | 0.451 | 0.338 | 0.265 | 0.882 | 0.939 | 0.824 | 0.552 | 0.35 | 0.994 | 1.02 | 0.849 | 0.508 | 0.465
NCI-H2087 | – | 0.465 | 0.379 | 0.184 | 0.162 | 0.153 | 0.162 | 0.165 | 0.164 | 0.155 | – | 0.985 | 1.01 | 0.512 | 0.255 | 0.69 | 1.04 | 0.841 | 0.371 | 0.158
NCI-H2126 | 0.55 | 0.536 | 0.559 | 0.349 | 0.303 | 0.927 | 0.877 | 0.545 | 0.622 | 0.33 | 0.75 | 0.75 | 0.52 | 0.723 | 0.306 | 0.787 | 0.82 | 0.839 | 0.8 | 0.643
NCI-H2170 | 0.415 | 0.426 | 0.422 | 0.374 | 0.338 | 0.714 | 0.874 | 0.273 | 0.585 | 0.452 | 0.65 | 0.849 | – | 0.621 | 0.513 | 0.503 | 0.555 | 0.578 | 0.414 | 0.377
NCI-H2228 | 0.314 | 0.312 | 0.301 | 0.185 | 0.147 | 0.159 | 0.141 | 0.154 | 0.117 | 0.147 | 0.864 | 1.01 | 0.713 | 0.442 | 0.224 | 1.02 | 0.625 | 0.664 | 0.437 | 0.363
NCI-H2347 | 0.374 | 0.437 | 0.222 | 0.255 | 0.286 | 0.498 | 0.407 | 0.299 | 0.237 | 0.285 | 1.11 | 0.99 | 0.615 | 0.455 | 0.406 | 0.75 | 0.883 | 0.663 | 0.259 | 0.402
NCI-H2405 | 0.333 | 0.399 | 0.383 | 0.263 | 0.262 | 0.646 | 0.65 | 0.949 | 0.664 | 0.301 | 0.714 | 0.801 | 0.482 | 0.582 | 0.34 | 0.559 | 0.714 | 0.499 | 0.196 | 0.199
NCI-H3122 | 0.341 | 0.379 | 0.5 | 0.194 | 0.198 | 0.072 | 0.0992 | 0.0664 | 0.116 | 0.076 | 0.748 | 0.752 | 0.728 | 0.595 | 0.402 | 1.08 | 1.03 | 0.96 | 0.79 | 0.547
PC-3 [JPC-3] | 0.476 | 0.511 | 0.475 | 0.364 | 0.336 | 0.67 | 0.717 | 0.549 | 0.581 | 0.371 | 0.946 | 1.05 | 0.833 | 0.984 | 0.777 | 0.784 | 0.957 | 0.758 | 0.63 | 0.511
PC-14 | 0.433 | 0.341 | 0.197 | 0.0557 | 0.0309 | 0.112 | 0.172 | 0.143 | 0.138 | 0.151 | 0.927 | 1.08 | 1.1 | 0.835 | 0.808 | 0.663 | 0.532 | 0.174 | 0.0752 | 0.0592
RERF-LC-KJ | 0.287 | 0.271 | 0.269 | 0.209 | 0.183 | 1.16 | 1.2 | 1.29 | 0.93 | 0.724 | 0.73 | 0.924 | 0.513 | 0.852 | 0.622 | 0.54 | 0.5 | 0.439 | 0.227 | 0.192
SK-LU-1 | 0.46 | 0.696 | 0.5 | 0.31 | 0.209 | 0.237 | 0.243 | 0.189 | 0.191 | 0.183 | 0.781 | 0.875 | 0.648 | 0.299 | 0.233 | 0.807 | 1.06 | 0.662 | 0.205 | 0.264
SK-MES-1 | 0.58 | 0.617 | 0.546 | 0.217 | 0.174 | 0.695 | 0.64 | 0.733 | 0.357 | 0.231 | 0.746 | 0.957 | 0.496 | 0.518 | 0.249 | 1.12 | 0.97 | 0.736 | 0.278 | 0.18
SW 1573 | 0.276 | 0.316 | 0.272 | 0.205 | 0.14 | 0.131 | 0.164 | 0.355 | 0.152 | 0.0996 | 0.6 | 0.857 | 0.55 | 0.404 | 0.223 | 0.652 | 0.571 | 0.515 | 0.201 | 0.104
